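In this assay, cells in 96-well plates receive the compound at five concentrations for 48 hours. Endpoints are linearly interpolated between the surrounding concentrations. The concentration for 50% growth inhibition is given as GI50. Definition used: TGI = concentration required for complete inhibition of growth.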
Columns and labels:
Assay in all cases: NCI tumour cell line growth inhibition, 48 h
SF-539 CNS = system: SF-539 CNS
MALME-3M melanoma = system: MALME-3M melanoma
EKVX NSCLC = system: EKVX NSCLC
LOX IMVI melanoma = system: LOX IMVI melanoma
ACHN renal = system: ACHN renal
SF-295 CNS = system: SF-295 CNS
OVCAR-3 ovarian = system: OVCAR-3 ovarian
M14 melanoma = system: M14 melanoma
RPMI-8226 leukemia = system: RPMI-8226 leukemia
HCT-116 colon = system: HCT-116 colon
MDA-MB-231 breast = system: MDA-MB-231 breast
HL-60(TB) leukemia = system: HL-60(TB) leukemia
SNB-19 CNS = system: SNB-19 CNS
SF-268 CNS = system: SF-268 CNS
COLO 205 colon = system: COLO 205 colon
SK-OV-3 ovarian = system: SK-OV-3 ovarian
IGROV1 ovarian = system: IGROV1 ovarian
BT-549 breast = system: BT-549 breast
PC-3 prostate = system: PC-3 prostate
HS 578T breast = system: HS 578T breast
HOP-62 NSCLC = system: HOP-62 NSCLC
NCI-H23 lung = system: NCI-H23 lung
RXF 393 renal = system: RXF 393 renal
DU-145 prostate = system: DU-145 prostate
MDA-MB-435 = system: MDA-MB-435
CAKI-1 renal = system: CAKI-1 renal
T-47D breast = system: T-47D breast
UACC-257 melanoma = system: UACC-257 melanoma
NCI/ADR-RES ovarian = system: NCI/ADR-RES ovarian
HCC-2998 colon = system: HCC-2998 colon
TK-10 renal = system: TK-10 renal
786-0 renal = system: 786-0 renal
HOP-92 NSCLC = system: HOP-92 NSCLC
SK-MEL-28 melanoma = system: SK-MEL-28 melanoma
SNB-75 CNS = system: SNB-75 CNS
A549 NSCLC = system: A549 NSCLC
SK-MEL-5 melanoma = system: SK-MEL-5 melanoma
U251 CNS = system: U251 CNS
A498 renal = system: A498 renal
NCI-H460 lung = system: NCI-H460 lung
MOLT-4 leukemia = system: MOLT-4 leukemia
KM12 colon = system: KM12 colon
UO-31 renal = system: UO-31 renal
HCT-15 colon = system: HCT-15 colon
OVCAR-8 ovarian = system: OVCAR-8 ovarian
SN12C renal = system: SN12C renal
NCI-H226 lung = system: NCI-H226 lung
MCF7 breast = system: MCF7 breast
SW-620 colon = system: SW-620 colon
HT29 colon = system: HT29 colon
SK-MEL-2 melanoma = system: SK-MEL-2 melanoma
K-562 leukemia = system: K-562 leukemia
CCRF-CEM leukemia = system: CCRF-CEM leukemia
NCI-H522 lung = system: NCI-H522 lung
OVCAR-5 ovarian = system: OVCAR-5 ovarian
SR leukemia = system: SR leukemia
OVCAR-4 ovarian = system: OVCAR-4 ovarian
UACC-62 melanoma = system: UACC-62 melanoma

COc1cccc2[nH]c3c4c(c5c(c3c12)C(=O)N(CN1CCN(C)CC1)C5=O)CCC4
GI50 (SF-539 CNS): 11.3 µM | TGI (SF-539 CNS): 26 µM | GI50 (MALME-3M melanoma): 6.43 µM | TGI (MALME-3M melanoma): 63.2 µM | GI50 (EKVX NSCLC): 14.1 µM | TGI (EKVX NSCLC): 83.3 µM | GI50 (LOX IMVI melanoma): 11.8 µM | TGI (LOX IMVI melanoma): 40.7 µM | GI50 (ACHN renal): 5.81 µM | TGI (ACHN renal): 36.4 µM | GI50 (SF-295 CNS): 10.1 µM | TGI (SF-295 CNS): 25.6 µM | GI50 (OVCAR-3 ovarian): 13.7 µM | TGI (OVCAR-3 ovarian): 34.2 µM | GI50 (M14 melanoma): 9.91 µM | TGI (M14 melanoma): > 80.4 µM | GI50 (RPMI-8226 leukemia): 4.6 µM | TGI (RPMI-8226 leukemia): 23.8 µM | GI50 (HCT-116 colon): 13.2 µM | TGI (HCT-116 colon): 45.7 µM | GI50 (MDA-MB-231 breast): 15 µM | TGI (MDA-MB-231 breast): 31.3 µM | GI50 (HL-60(TB) leukemia): 19.6 µM | TGI (HL-60(TB) leukemia): > 75.1 µM | GI50 (SNB-19 CNS): 13.3 µM | TGI (SNB-19 CNS): 34.6 µM | GI50 (SF-268 CNS): 13.5 µM | TGI (SF-268 CNS): > 52.3 µM | GI50 (COLO 205 colon): 11.4 µM | TGI (COLO 205 colon): 35.6 µM | GI50 (SK-OV-3 ovarian): 11.7 µM | TGI (SK-OV-3 ovarian): 29.8 µM | GI50 (IGROV1 ovarian): 4.79 µM | TGI (IGROV1 ovarian): > 46.1 µM | GI50 (BT-549 breast): 19 µM | TGI (BT-549 breast): 99.1 µM | GI50 (PC-3 prostate): 6.58 µM | TGI (PC-3 prostate): > 46.7 µM | GI50 (HS 578T breast): 18.2 µM | TGI (HS 578T breast): > 88.3 µM | GI50 (HOP-62 NSCLC): 14.5 µM | TGI (HOP-62 NSCLC): 39.1 µM | GI50 (NCI-H23 lung): 15 µM | TGI (NCI-H23 lung): > 72.5 µM | GI50 (RXF 393 renal): 3.45 µM | TGI (RXF 393 renal): 13.6 µM | GI50 (DU-145 prostate): 9.22 µM | TGI (DU-145 prostate): 21.6 µM | GI50 (MDA-MB-435): 7.37 µM | TGI (MDA-MB-435): 30.7 µM | GI50 (CAKI-1 renal): 4.34 µM | TGI (CAKI-1 renal): 38.8 µM | GI50 (T-47D breast): 4.62 µM | TGI (T-47D breast): > 73.9 µM | GI50 (UACC-257 melanoma): 14.8 µM | TGI (UACC-257 melanoma): 45.1 µM | GI50 (NCI/ADR-RES ovarian): 12.2 µM | TGI (NCI/ADR-RES ovarian): 37.5 µM | GI50 (HCC-2998 colon): 15.6 µM | TGI (HCC-2998 colon): > 76 µM | GI50 (TK-10 renal): 6.85 µM | TGI (TK-10 renal): 28.3 µM | GI50 (786-0 renal): 13.3 µM | TGI (786-0 renal): 31.8 µM | GI50 (HOP-92 NSCLC): 15.1 µM | TGI (HOP-92 NSCLC): 44.9 µM | GI50 (SK-MEL-28 melanoma): 10.8 µM | TGI (SK-MEL-28 melanoma): 29.8 µM | GI50 (SNB-75 CNS): 9.2 µM | TGI (SNB-75 CNS): 40.5 µM | GI50 (A549 NSCLC): 8.49 µM | TGI (A549 NSCLC): 25.6 µM | GI50 (SK-MEL-5 melanoma): 8.26 µM | TGI (SK-MEL-5 melanoma): > 100 µM | GI50 (U251 CNS): 6.3 µM | TGI (U251 CNS): 21.8 µM | GI50 (A498 renal): 2.73 µM | TGI (A498 renal): > 100 µM | GI50 (NCI-H460 lung): 6.35 µM | TGI (NCI-H460 lung): 25.8 µM | GI50 (MOLT-4 leukemia): 5.9 µM | TGI (MOLT-4 leukemia): 42.3 µM | GI50 (KM12 colon): 12.3 µM | TGI (KM12 colon): 49.7 µM | GI50 (UO-31 renal): 2.76 µM | TGI (UO-31 renal): > 23.8 µM | GI50 (HCT-15 colon): 7.33 µM | TGI (HCT-15 colon): 25.9 µM | GI50 (OVCAR-8 ovarian): 8.6 µM | TGI (OVCAR-8 ovarian): 26.5 µM | GI50 (SN12C renal): 11.2 µM | TGI (SN12C renal): 33.9 µM | GI50 (NCI-H226 lung): 9.46 µM | TGI (NCI-H226 lung): > 90.9 µM | GI50 (MCF7 breast): 9.27 µM | TGI (MCF7 breast): 39.7 µM | GI50 (SW-620 colon): 13.6 µM | TGI (SW-620 colon): 38 µM | GI50 (HT29 colon): 8.99 µM | TGI (HT29 colon): 29.8 µM | GI50 (SK-MEL-2 melanoma): 22.7 µM | TGI (SK-MEL-2 melanoma): > 100 µM | GI50 (K-562 leukemia): 16.3 µM | TGI (K-562 leukemia): > 67.8 µM | GI50 (CCRF-CEM leukemia): 5.55 µM | TGI (CCRF-CEM leukemia): 33.3 µM | GI50 (NCI-H522 lung): 8.95 µM | TGI (NCI-H522 lung): > 56.9 µM | GI50 (OVCAR-5 ovarian): 14.5 µM | TGI (OVCAR-5 ovarian): 44.6 µM | GI50 (SR leukemia): 2.11 µM | TGI (SR leukemia): 11.1 µM | GI50 (OVCAR-4 ovarian): 8.03 µM | TGI (OVCAR-4 ovarian): 26.9 µM | GI50 (UACC-62 melanoma): 9.9 µM | TGI (UACC-62 melanoma): 30.9 µM
